Drawing on patent US20150232509A1, “SPIRO RING COMPOUNDS AS HEPATITIS C VIRUS (HCV) INHIBITORS” (SUNSHINE LAKE PHARMA CO., LTD., priority 2012, published 2015), this text covers EC50 for 28 compounds.

For one test, the system named is HCV GT1b replicon cells. The experiment in a line: HCV Replicon assay, GT1b replicon cells (Luciferase / NEO qPCR). Format: cell-based. The note with it: Hepatitis C virus, 72 hours incubation, read-out: EC50 against HCV 1b genotype. As for the experimental part: (§1) An HCV Replicon assay was utilized in the present invention, and was prepared, developed and validated as described in Science, 1999, 285 (5424), 110-3 and J. Virol., 2003, 77 (5), 3007-19.
(§2) HCV GT1a, GT1b and GT2a replicon cells were used to test the currently described compound series as well as wild-type cells HCV 1b and resistant cells Y93H, L31F, P32L and 1302V. […]
(§3) The GT1a cells and GT1b cells were seeded into 96-well plates (8,000 cells in 125 μL/well) respectively; each compound was diluted to desired concentration using 5-fold serial dilutions protocol, 10 doses in duplicate, and added to wells with POD™ 810 Plate Assembler. The final concentration of DMSO was 0.5%; the plates were incubated in a CO2 incubator for 72 hours; after that, 40 μL of Luciferase assay substrate (Promega Bright-Glo) was added to each well, and detected by a chemiluminescence detection system (Topcount Microplate Scintillation and Luminescence Counter) 5 minutes later; data analysis.
(§4) The GT1a cells and GT1b cells were seeded into 96-well plates (8,000 cells in 125 μL/well) respectively; each compound was diluted to desired concentration using 5-fold serial dilutions protocol, 10 doses in duplicate, and added to wells with POD™ 810 Plate Assembler., the final concentration of DMSO was 0.5%; the cells were incubated in a CO2 incubator for 72 hours; quantitative PCR. • Sample preparation: the supernatant was removed, 100 μL of FCW buffer solution was added to each well, washed carefully and discarded the solution; 50 μL of lysate FCP was added to each well, the cells was lysed as PCR template and PCR template was diluted with DEPC water as sample template. • Quantitative PCR: preparation of reaction mixture according to PCR system; the reaction mixture was dispensed into a 384-well PCR reaction plate (specially for quantitative); and a standard template which was diluted in proportion was distributed into the plate; and the sample template was distributed into the plate; then the 384-well plate was sealed with closure plate membrane; the […] PCR machine was operated by procedures; data analysis. 3. Data Processing: the EC50 Values of Compounds were Analyzed by GraphPad Prism Software.
(In general: In antiviral work, replicon cells carry a viral genome segment that copies itself.)

The test system of another test is HCV GT1a replicon cells. The experiment in a line: HCV Replicon assay, GT1a replicon cells (Luciferase / NEO qPCR). Format: cell-based. The note with it: Hepatitis C virus, 72 hours incubation, read-out: EC50 against HCV 1a genotype. As for the experimental part:
as §1, §2, §3, §4

As to `C=C([C@@H](NC(=O)OC)C(C)C)N1CC(C)(C)C[C@H]1c1ncc(-c2ccc(-c3ccc(-c4cnc([C@@H]5CC(C)(C)CN5C(=O)[C@@H](NC(=O)OC)C(C)C)[nH]4)cc3)c3c2CCC32CCCC2)[nH]1` [Example 18], the EC50 with HCV GT1b replicon cells amounted to 0.203 nM; in the test with HCV GT1a replicon cells it was 0.458 nM.
The corresponding values for `COC(=O)N[C@H](C(=O)N1C2CCC(C2)[C@H]1c1ncc(-c2ccc(-c3ccc(-c4cnc([C@@H]5C6CCC(C6)N5C(=O)[C@@H](NC(=O)OC)C(C)C)[nH]4)c4c3C3(CCCC3)CC4)cc2)[nH]1)C(C)C` (some centres unmarked) [Example 25] are 0.032 nM and 10.7 nM.
The corresponding values for `COC(=O)N[C@H](C(=O)N1CCC[C@H]1c1ncc(-c2ccc(-c3ccc(-c4ccc5nc([C@@H]6CCCN6C(=O)[C@@H](NC(=O)OC)C(C)C)[nH]c5c4)cc3)c3c2CCC32CCCC2)[nH]1)C(C)C` [Example 29] are 0.218 nM and 8.68 nM.
The corresponding values for `COC(=O)N[C@H](C(=O)N1CCC[C@H]1c1ncc(-c2ccc(-c3ccc(-c4ccc5nc([C@@H]6CCCN6C(=O)[C@@H](NC(=O)OC)C(C)C)[nH]c5c4)c4c3CCCC43CCCC3)nc2)[nH]1)C(C)C` [Example 45] are 0.034 nM and 0.107 nM.
In the case of `COC(=O)N[C@H](C(=O)N1CCC[C@H]1c1ncc(-c2ccc(-c3ccc(-c4cnc([C@@H]5CCCN5C(=O)[C@@H](NC(=O)OC)C(C)C)[nH]4)c4c3C3(CC4)CCC(C)CC3)s2)[nH]1)C(C)C` (some centres unmarked) [Example 44], the EC50 turned out to be 0.937 nM with HCV GT1b replicon cells and 13.7 nM with HCV GT1a replicon cells.
The corresponding values for `COC(=O)N[C@H](C(=O)N1CCC[C@H]1C(=O)Nc1ccc(-c2ccc(-c3ccc(NC(=O)[C@@H]4CCCN4C(=O)[C@@H](NC(=O)OC)C(C)C)cc3)c3c2CCC32CCCC2)cc1)C(C)C` [Example 20] are 1.03 nM and 5.9 nM.
The corresponding values for `COC(=O)N[C@H](C(=O)N1C[C@@H](C)C[C@H]1c1nc(-c2ccc(-c3ccc(-c4ccc5nc([C@@H]6C[C@H](C)CN6C(=O)[C@@H](NC(=O)OC)C(C)C)[nH]c5c4)c4c3C3(CCCC3)CC4)cc2)c[nH]1)C(C)C` [Example 16] are 0.005 nM and 0.008 nM.
The corresponding values for `COC(=O)N[C@H](C(=O)N1CCC[C@H]1c1nc(-c2ccc(-c3ccc(-c4ccc(-c5cnc([C@@H]6CCCN6C(=O)[C@@H](NC(=O)OC)C(C)C)[nH]5)cc4)c4c3CCC43CCCC3)cc2)c[nH]1)C(C)C` [Example 6] are 0.208 nM and 1.37 nM.
`COC(=O)NC(C(=O)N1CCCC1c1ncc(-c2ccc(-c3ccc(-c4ccc5[nH]c(C6CCCN6C(=O)C(NC(=O)OC)C(C)C)nc5c4)c4c3CCC43CCCC3)cc2)[nH]1)C(C)C` (centres unmarked) [Example 56]: the EC50 in the test with HCV GT1b replicon cells turned out to be 0.036 nM; in the test with HCV GT1a replicon cells it was 0.138 nM.
Regarding `COC(=O)N[C@H](C(=O)N1CCC[C@H]1c1nc2ccc(-c3ccc(-c4ccc5nc([C@@H]6CCCN6C(=O)[C@@H](NC(=O)OC)C(C)C)[nH]c5c4)c4c3CCC43CCC3)cc2[nH]1)C(C)C` [Example 40], the EC50 in the test on HCV GT1b replicon cells worked out at 0.017 nM; with HCV GT1a replicon cells, 0.043 nM.
The corresponding values for `COC(=O)N[C@@H](C)C(=O)N1CCCC[C@H]1c1ncc(-c2ccc(-c3ccc(-c4cnc([C@@H]5CCCCN5C(=O)[C@H](C)NC(=O)OC)[nH]4)c4c3C3(CCCC3)CC4)cc2)[nH]1` [Example 27] are 0.655 nM and 12.7 nM.
The corresponding values for `COC(=O)N[C@H](C(=O)N1CCC[C@H]1c1nc(-c2ccc(-c3ccc(-c4c[nH]c([C@@H]5CCCN5C(=O)[C@@H](NC(=O)OC)C(C)C)n4)c4c3C3(CCCC3)CC4)cc2)c[nH]1)C(C)C` [Example 2] are 0.009 nM and 0.325 nM.
The corresponding values for `COC(=O)NC(C(=O)N1CCCC1c1ncc(-c2ccc(-c3ccc(-c4ccc5[nH]c(C6CCCN6C(=O)C(NC(=O)OC)C(C)C)nc5c4)c4c3C3(CCCC3)CC4)cc2)[nH]1)C(C)C` (centres unmarked) [Example 55] are 0.028 nM and 0.073 nM.
Turning to `COC(=O)N[C@H](C(=O)N1CCC[C@H]1c1ncc(-c2ccc(-c3ccc(-c4ccc5nc([C@@H]6CCCN6C(=O)[C@@H](NC(=O)OC)C(C)C)[nH]c(=O)c5c4)c4c3C3(CCCC3)CC4)cc2)[nH]1)C(C)C` [Example 38], the EC50 in the test with HCV GT1b replicon cells is 0.009 nM; in the test on HCV GT1a replicon cells, 0.066 nM.
The corresponding values for `COC(=O)N[C@H](C(=O)N1CCC[C@H]1c1ncc(-c2ccc(-c3ccc(-c4cnc([C@@H]5CCCN5C(=O)[C@@H](NC(=O)OC)C(C)C)[nH]4)c4c3C3(CCCO3)CCC4)cc2)[nH]1)C(C)C` (some centres unmarked) [Example 51] are 0.086 nM and 4.57 nM.
Take `COC(=O)N[C@H](C(=O)N1CCC[C@H]1c1ncc(-c2ccc(-c3ccc(-c4ccc5[nH]c([C@@H]6CCCN6C(=O)[C@@H](NC(=O)OC)C(C)C)nc5c4)c4c3CCC43CCCC3)cc2)[nH]1)C(C)C` [Example 4]: the figures for the EC50 in the test on HCV GT1b replicon cells and with HCV GT1a replicon cells were 0.029 nM and 0.085 nM, respectively.
In the case of `COC(=O)N[C@H](C(=O)N1CCC[C@H]1c1nc2cc(-c3ccc(-c4ccc5[nH]c([C@@H]6CCCN6C(=O)[C@@H](NC(=O)OC)C(C)C)nc5c4)c4c3CCC43CCCC3)ccc2[nH]1)C(C)C` [Example 1], the EC50 in the test with HCV GT1b replicon cells is 0.041 nM; in the test on HCV GT1a replicon cells, 0.102 nM.
`COC(=O)N[C@H](C(=O)N1CCC[C@H]1c1ncc(-c2ccc(-c3ccc(-c4cnc([C@@H]5CCCN5C(=O)[C@@H](NC(=O)OC)C(C)C)[nH]4)c4c3C3(CC4)CCN(C)C3)cc2)[nH]1)C(C)C` (some centres unmarked) [Example 48]: the 50% effective concentration (EC50) in the test on HCV GT1b replicon cells is 0.24 nM; in the test with HCV GT1a replicon cells it was 3.08 nM.
In the case of `COC(=O)N[C@@H](C)C(=O)N1CCC[C@H]1c1ncc(-c2ccc(-c3ccc(-c4cnc([C@@H]5CCCN5C(=O)[C@H](C)NC(=O)OC)[nH]4)c4c3C3(CCCC3)CC4)cc2)[nH]1` [Example 12], the concentration for a half-maximal effect (EC50) in the test with HCV GT1b replicon cells is 0.018 nM; in the test with HCV GT1a replicon cells, 0.856 nM.
The corresponding values for `COC(=O)N[C@H](C(=O)N1CCC[C@H]1c1ncc(C#Cc2ccc(C#Cc3cnc([C@@H]4CCCN4C(=O)[C@@H](NC(=O)OC)C(C)C)[nH]3)c3c2CCC32CCCC2)[nH]1)C(C)C` [Example 7] are 0.106 nM and 0.955 nM.
On to `COC(=O)N[C@H](C(=O)N1CCS[C@H]1c1ncc(-c2ccc(-c3ccc(-c4cnc([C@@H]5SCCN5C(=O)[C@@H](NC(=O)OC)C(C)C)[nH]4)c4c3C3(CCCC3)CC4)cc2)[nH]1)C(C)C` [Example 28], for which the EC50 with HCV GT1b replicon cells stood at 0.667 nM; in the test with HCV GT1a replicon cells, 4.57 nM.
The corresponding values for `COC(=O)N[C@H](C(=O)N1CCC[C@H]1C(=O)Nc1cccc(-c2ccc(-c3ccc(-c4cnc([C@@H]5CCCN5C(=O)[C@@H](NC(=O)OC)C(C)C)[nH]4)cc3)c3c2CCC32CCCC2)c1)C(C)C` [Example 34] are 0.017 nM and 0.837 nM.
On to `COC(=O)N[C@H](C(=O)N1CCC[C@H]1c1ncc(-c2ccc(-c3sc(-c4cnc([C@@H]5CCCN5C(=O)[C@@H](NC(=O)OC)C(C)C)[nH]4)c4c3C3(CCCC3)CC4)cc2)[nH]1)C(C)C` [Example 47], for which the results for the 50% effective concentration (EC50) in the test on HCV GT1b replicon cells and in the test with HCV GT1a replicon cells were 0.687 nM and 3.57 nM, respectively.
The corresponding values for `COC(=O)N[C@H](C(=O)N1CCC[C@H]1c1ncc(-c2ccc(-c3ccc(-c4ccc5nc([C@@H]6CCCN6C(=O)[C@@H](NC(=O)OC)C(C)C)[nH]c5c4)c4c3CCCC43CCC3)s2)[nH]1)C(C)C` [Example 41] are 0.043 nM and 0.876 nM.
The corresponding values for `COC(=O)N[C@H](C(=O)N1CCC[C@H]1c1nc(-c2ccc(-c3ccc(-c4ccc5nc([C@@H]6CCCN6C(=O)[C@@H](NC(=O)OC)C(C)C)[nH]c5c4)c4c3CCC43CCCC3)c3c2CCC3)c[nH]1)C(C)C` [Example 36] are 0.089 nM and 1.08 nM.
For `COC(=O)N[C@H](C(=O)N1C2CC2C[C@H]1c1ncc(-c2ccc(-c3ccc(-c4ccc(-c5cnc([C@@H]6CC7CC7N6C(=O)[C@@H](NC(=O)OC)C(C)C)[nH]5)cc4)c4c3CCC43CCCC3)cc2)[nH]1)C(C)C` (some centres unmarked) [Example 23], the EC50 was 0.012 nM in the test with HCV GT1b replicon cells and 0.334 nM in the test with HCV GT1a replicon cells.
The corresponding values for `COC(=O)N[C@H](C(=O)N1CCC[C@H]1c1ncc(C#Cc2ccc(-c3ccc(-c4cnc([C@@H]5CCCN5C(=O)[C@@H](NC(=O)OC)C(C)C)[nH]4)cc3)c3c2CCC32CCCC2)[nH]1)C(C)C` [Example 13] are 0.032 nM and 0.438 nM.
The corresponding values for `COC(=O)N[C@H](C(=O)N1CCCC[C@H]1c1ncc(-c2ccc(-c3ccc(-c4cnc([C@@H]5CCCCN5C(=O)[C@@H](NC(=O)OC)C(C)C)[nH]4)c4c3C3(CCCC3)CC4)cc2)[nH]1)C(C)C` [Example 26] are 0.088 nM and 13.7 nM.

For orientation: EC50 means the concentration giving half of the maximal effect.
